Results on two molecules are retold here after ChEMBL document CHEMBL1156867, “Improved synthesis of a fluorogenic ceramidase substrate” (Bioorg Med Chem, 2010).

The source made the active and inactive calls. The calls are words filed in the database; no cut-off is given here.

Experiment [1] relates to SK-OV-3. The experiment can be described thus: Activity of ceramidase in human SKOV3 cells assessed as formation of 7-(((3R,4S)-4-amino-3,5- dihydroxypentyl)oxy)-2H-chromen-2-one at 16 uM after 1 to 24 hrs at 37 degC by HPLC. The note with it: TDE = time-dependent effect. Format: cell-based.
The subject of experiment [2] is SK-OV-3. Briefly: Activity of ceramidase in human SKOV3 cells assessed as formation of 7-(((3R,4S)-4-amino-3,5- dihydroxypentyl)oxy)-2H-chromen-2-one at 16 uM after 1 to 24 hrs at 37 degC by umbelliferone formation based fluorescence intensity assay. It is filed as cell-based. The settings on record: TDE = time-dependent effect.
Experiment [3] concerns SK-OV-3. The experiment can be described thus: Activity of ceramidase in human SKOV3 cells assessed as formation of 7-(((3R,4S)-4-amino-3,5- dihydroxypentyl)oxy)-2H-chromen-2-one at 16 uM after 24 hrs at 37 degC by HPLC. Format: cell-based.
Experiment [4] is described as follows: Inhibition of pig liver ceramidase assessed as hydrolysis of N-((2S,3R)-1,3-dihydroxy-5-((2-oxo-2H-chromen-7-yl)oxy)pentan-2-yl)palmitamide. Details: species or system Sus scrofa.
A short description of experiment [5]: Inhibition of rat liver ceramidase assessed as hydrolysis of N-((2S,3R)-1,3-dihydroxy-5-((2-oxo-2H-chromen-7-yl)oxy)pentan-2-yl)palmitamide.
Experiment [6] can be described thus: Inhibition of ceramidase in human SKOV3 cells assessed as hydrolysis of N-((2S,3R)-1,3-dihydroxy-5-((2-oxo-2H-chromen-7-yl)oxy)pentan-2-yl)palmitamide at 16 uM after 24 hrs at 37 degC by umbelliferone formation based fluorescence intensity assay. Format: cell-based, SK-OV-3.
The nature of experiment [7]: Inhibition of ceramidase in human SKOV3 cells assessed as hydrolysis of N-((2S,3R)-1,3-dihydroxy-5-((2-oxo-2H-chromen-7-yl)oxy)pentan-2-yl)palmitamide at 16 uM after 24 hrs at 37 degC by HPLC. It is filed as cell-based. The settings on record: sk-ov-3.

As for `CCCCCCCCCCCCCCCC(=O)N[C@@H](CO)[C@H](O)CCOc1ccc2ccc(=O)oc2c1`, the Activity entry in the experiment on SK-OV-3 [1] and with SK-OV-3 [2] was “tde” in each case. In addition, the outcome in the experiment on SK-OV-3 [3] was Active.

`CCCCCCCC/C=C\CCCCCCCC(=O)NCCO` [OLEOYLETHANOLAMIDE]: the concentration for half-maximal inhibition (IC50) in experiment [4] is 76 µM; in experiment [5], 71 µM; in experiment [6] (Homo sapiens, SK-OV-3, 24 h, read-out: IC50), 28 µM; in experiment [6] (sk-ov-3), “Dose-dependent effect”; in experiment [7], “Dose-dependent effect”; in experiment [7] (read-out: IC50) it was 24 µM.

By IC50 is commonly meant the concentration that inhibits the measured activity by half.
